Data: ChEMBL document CHEMBL1129119, “N-Benzylated benzimidazol-2-one derivatives: activators of large-conductance Ca2+-dependent K+ channels” (1996)

experiment: Tested for maxi-K channel opening property using two -electrode voltage clamp recording from Xenopus laevis oocytes at 20 uM; assay type: functional, frog, Oocyte

SMILES | Control current [%]
Oc1ccccc1CCn1c(O)nc2cc(C(F)(F)F)ccc21 | 119.5
Oc1ccc(Cl)cc1Cn1c(O)nc2cc(F)ccc21 | 105.9
Oc1ccc(Cl)cc1Cn1c(O)nc2ccc(Br)cc21 | 107.9
O=c1[nH]c2cc(C(F)(F)F)ccc2n1Cc1cc(Cl)ccc1O | 133.4
Cc1ccc2c(c1)nc(O)n2Cc1cc(Cl)ccc1O | 101.9
Oc1ccc(Cl)cc1Cn1c(O)nc2cc(Cl)cc(Cl)c21 | 118.3
Oc1ccc2c(c1)nc(O)n2Cc1cc(Cl)ccc1O | 106
O=[N+]([O-])c1ccc2c(c1)nc(O)n2Cc1cc(Cl)ccc1O | 163.1
Oc1ccccc1Cn1c(O)nc2cc(C(F)(F)F)ccc21 | 126
Oc1ccc(Cl)cc1Cn1c(O)nc2cnccc21 | 107.2
Oc1ccc(Cl)cc1Cn1c(O)nc2cc(Br)ccc21 | 135.7
Oc1ccc(Cl)cc1Cn1c(O)nc2cc(I)ccc21 | 120.2
Oc1ccc(Cl)cc1Cn1c(O)nc2ccncc21 | 100.8
Oc1ccc(Cl)cc1Cn1c(O)nc2ccc(Cl)cc21 | 116.3
O=c1[nH]c2cc(C(F)(F)F)ccc2n1-c1cc(Cl)ccc1O | 131.8
Oc1ccc(Cl)cc1Cn1c(O)nc2cc(Cl)c(Cl)cc21 | 145.8
Oc1ccc(Cl)cc1Cn1c(O)nc2cc(Cl)ccc21 | 150.1
Oc1ccc(Cl)cc1Cn1c(O)nc2ccccc21 | 110.9
COc1ccc(Cl)cc1Cn1c(O)nc2ccccc21 | 104.2
